According to patent US6531496B1 (Bayer Aktiengesellschaft, priority 1999, dated 2003):

Tested on: not listed separately
Experiment: logP by HPLC (EEC Directive 79/831 Annex V. A8, gradient method)
Type: physicochemical
Conditions: HPLC, gradient method, acetonitrile/0.1% aqueous phosphoric acid; Table 1

SMILES | logP
COC(=O)Nc1ccc(C=Cc2cccc(OC3=NS(=O)(=O)CS3)c2)c(NC(=O)OC)c1 [Example 49] | 2.43
O=[N+]([O-])c1ccc(/C=C/c2ccc(OC3=NS(=O)(=O)CS3)cc2)cc1 [Example 50] | 3.3
O=S1(=O)CSC(Oc2ccc(N=Nc3ccccc3)cc2OC2=NS(=O)(=O)CS2)=N1 [Example 51] | 3.06
Cc1cc(OC2=NS(=O)(=O)CS2)ccc1SC(F)(F)F [Example 52] | 3.39
CN=Cc1ccc(OC2=NS(=O)(=O)CS2)cc1 [Example 53] | 2.33
CSc1ccc(OC2=NS(=O)(=O)CS2)cc1C [Example 54] | 2.75
N#CSCC(=O)c1ccc(OC2=NS(=O)(=O)CS2)cc1 [Example 55] | 2.01
O=S1(=O)CSC(Oc2cccc(C3=NOCCO3)c2)=N1 [Example 56] | 1.86
CCC(=O)c1ccccc1OC1=NS(=O)(=O)CS1 [Example 57] | 2.04
COc1cc(OC2=NS(=O)(=O)CS2)ccc1C(C)=O [Example 58] | 1.88
CCS(=O)(=O)c1ccc(OC2=NS(=O)(=O)CS2)cc1 [Example 59] | 1.54
Cc1cc(OC2=NS(=O)(=O)CS2)cc(C)c1SC#N [Example 60] | 2.55
CN(C)N=Cc1ccc(OC2=NS(=O)(=O)CS2)cc1 [Example 61] | 2.16
Cc1nc(Sc2ccc(OC3=NS(=O)(=O)CS3)cc2)sc1C [Example 62] | 2.91
Cc1cnc(Sc2ccc(OC3=NS(=O)(=O)CS3)cc2)nc1C [Example 63] | 2.55
CCN(CC)C(=O)c1ccc(OC2=NS(=O)(=O)CS2)c(NC)c1 [Example 64] | 2
O=C(Cc1ccccc1)c1ccc(OC2=NS(=O)(=O)CS2)cc1 [Example 65] | 2.76
COc1ccc(C(=O)c2ccc(OC3=NS(=O)(=O)CS3)cc2)cc1 [Example 66] | 2.67
O=C(C=Cc1ccccc1)c1ccc(OC2=NS(=O)(=O)CS2)cc1 [Example 67] | 3.06
COC(=O)c1ccc(N=Cc2ccc(OC3=NS(=O)(=O)CS3)cc2)cc1 [Example 68] | 1.59
CSc1nnc(C(C)(C)C)c(=O)n1N=Cc1cccc(OC2=NS(=O)(=O)CS2)c1 [Example 69] | 3.43
O=C(c1ccc(OC2=NS(=O)(=O)CS2)cc1)c1ccc(-c2ccccc2)cc1 [Example 70] | 3.72
CCCCc1oc2ccccc2c1C(=O)c1ccc(OC2=NS(=O)(=O)CS2)cc1 [Example 71] | 4.28
CCOC(=O)NN=C(C)c1ccc(OC2=NS(=O)(=O)CS2)cc1 [Example 72] | 1.86
O=S1(=O)CSC(Oc2ccc(C3=Nc4ccccc4SC(c4ccccc4)C3)cc2)=N1 (stereo not drawn) [Example 73] | 4.19
CC(=O)c1cc(OC2=NS(=O)(=O)CS2)cc([N+](=O)[O-])c1 [Example 74] | 1.95
COc1ccc(C(C)=O)c(OC2=NS(=O)(=O)CS2)c1 [Example 75] | 1.83
COC(=O)c1ccc(N=Cc2cccc(OC3=NS(=O)(=O)CS3)c2)cc1 [Example 76] | 1.61

SMILES | logP
O=S1(=O)CSC(Oc2ccc(S(=O)(=O)c3ccc(Cl)cc3)cc2)=N1 [Example 83] | 2.72
Cc1cc(OC2=NS(=O)(=O)CS2)ccc1Sc1ccc([N+](=O)[O-])cc1C [Example 84] | 3.94
O=C(c1ccc(Cl)cc1)c1ccc(OC2=NS(=O)(=O)CS2)cc1 [Example 86] | 3.17
O=S1(=O)CSC(Oc2ccc(OC3=NS(=O)(=O)CS3)cc2)=N1 [Example 88] | 1.88
O=S1(=O)CSC(Oc2cccc(CCO)c2)=N1 [Example 90] | 1.39
O=S1(=O)CSC(Oc2cccc(OCCO)c2)=N1 [Example 91] | 1.37
N#Cc1cccc(OC2=NS(=O)(=O)CS2)c1 [Example 109] | 1.69
O=S1(=O)CSC(Oc2ccc(F)cc2)=N1 [Example 112] | 2.04
O=S1(=O)CSC(Oc2cccc(C(F)(F)F)c2)=N1 [Example 113] | 2.62
COc1cc(Cl)cc(OC2=NS(=O)(=O)CS2)c1 [Example 116] | 2.61
COc1ccc(OC2=NS(=O)(=O)CS2)cc1OC [Example 117] | 1.82
COc1cccc(OC2=NS(=O)(=O)CS2)c1OC [Example 118] | 2.12
Cc1cc(S(=O)(=O)c2ccccc2)cc(Cl)c1OC1=NS(=O)(=O)CS1 [Example 120] | 2.83
O=[N+]([O-])c1ccc(Sc2ccc(OC3=NS(=O)(=O)CS3)cc2)cc1 [Example 121] | 3.28
O=S1(=O)CSC(Oc2ccc(Br)cc2)=N1 [Example 122] | 2.52
Cc1cccc(C)c1OC1=NS(=O)(=O)CS1 [Example 123] | 2.57
O=S1(=O)CSC(Oc2ccc(OC(F)(F)F)cc2)=N1 [Example 124] | 2.79
Cc1ccc(C)c(OC2=NS(=O)(=O)CS2)c1 [Example 125] | 2.63
O=[N+]([O-])c1ccc(Oc2ccc(OC3=NS(=O)(=O)CS3)cc2)c(Cl)c1 [Example 126] | 3.33
CC(C)Oc1ccccc1OC1=NS(=O)(=O)CS1 [Example 129] | 2.7
O=C(C=Cc1ccccc1)c1ccccc1OC1=NS(=O)(=O)CS1 [Example 130] | 2.91
O=S1(=O)CSC(Oc2ccccc2C(F)(F)F)=N1 [Example 131] | 2.49
O=S1(=O)CSC(Oc2ccc(C(F)(F)F)cc2)=N1 [Example 132] | 2.64
O=S1(=O)CSC(Oc2cccc(OC(F)(F)F)c2)=N1 [Example 134] | 2.35
O=S1(=O)CSC(Oc2ccc(SC(F)(F)F)cc2)=N1 [Example 135] | 3.07
COc1ccccc1OC1=NS(=O)(=O)CS1 [Example 136] | 2.02
Cc1cc(OC2=NS(=O)(=O)CS2)ccc1N [Example 137] | 0.83

Same assay, conditions: Table 2

SMILES | chromatographic logP
O=S1(=O)CSC(Oc2ccc3c(c2)OCO3)=N1 [Example 142] | 1.9
O=C1Cc2cc(OC3=NS(=O)(=O)CS3)ccc2O1 [Example 143] | 0.48
Cc1c(C(=O)O)c2cc(OC3=NS(=O)(=O)CS3)ccc2n1C [Example 144] | 2.65
COC(=O)c1c(-c2ccc(-c3ccccc3)cc2)oc2ccc(OC3=NS(=O)(=O)CS3)cc12 [Example 146] | 3.43
O=c1oc2cc(OC3=NS(=O)(=O)CS3)ccc2cc1-c1ccccc1 [Example 147] | 2.77
Cc1nc2cc(OC3=NS(=O)(=O)CS3)ccc2s1 [Example 148] | 1.92
CN1C(=O)Nc2cc(OC3=NS(=O)(=O)CS3)ccc2SC1=O [Example 149] | 1.55
CC1(C)Oc2cccc(OC3=NS(=O)(=O)CS3)c2O1 [Example 150] | 2.6
COC(=O)/C(C#N)=C1/Oc2ccc(OC3=NS(=O)(=O)CS3)cc2S1 [Example 151] | 2.31
O=c1c2ccccc2oc2cc(OC3=NS(=O)(=O)CS3)ccc12 [Example 152] | 2.52
O=S1(=O)CSC(Oc2cccc3sc4ccccc4c23)=N1 [Example 153] | 3.31
O=S1(=O)CSC(Oc2ccc3c(c2)Nc2ccccc2S3(=O)=O)=N1 [Example 154] | 1.93
O=S1(=O)CSC(Oc2ccc3[nH]ccc3c2)=N1 [Example 155] | 1.86
O=S1(=O)CSC(Oc2ccc3c(c2)CCC3)=N1 [Example 157] | 2.8
CC1(C)Cc2cccc(OC3=NS(=O)(=O)CS3)c2O1 [Example 158] | 2.66

Same assay, conditions: Table 3, intermediates of formula (II-a)

SMILES | chromatographic logP
O=S1(=O)CC(c2ccccc2)SC(Cl)=N1 (stereo not drawn) [II-a-1] | 2.63
CC1(c2ccccc2)CS(=O)(=O)N=C(Cl)S1 (stereo not drawn) [II-a-2] | 2.75

Same assay, conditions: Table 4, starting materials of formula (IV)

SMILES | chromatographic logP
CSC1=NS(=O)(=O)C(C)S1 (stereo not drawn) [IV-3] | 1.38
CSC1=NS(=O)(=O)C(C(C)C)S1 (stereo not drawn) [IV-4] | 2.8
CSC1=NS(=O)(=O)CC(C)(c2ccccc2)S1 (stereo not drawn) [IV-5] | 2.65
CSC1=NS(=O)(=O)CC(c2ccccc2)S1 (stereo not drawn) [IV-6] | 2.54

Same assay, conditions: gradient of acetonitrile/0.1% aqueous phosphoric acid; HPLC, gradient method, acetonitrile/0.1% aqueous phosphoric acid; Table 1

SMILES | chromatographic logP
CC(=O)c1ccc(OC2=NS(=O)(=O)CS2)cc1 [Example 21] | 1.69
CO/N=C(/c1ccccc1)c1cccc(OC2=NS(=O)(=O)CS2)c1 [Example 41] | 3.28
C=CCO/N=C(/c1ccccc1)c1cccc(OC2=NS(=O)(=O)CS2)c1 [Example 42] | 3.72
O=S1(=O)CSC(Oc2cccc(Br)c2)=N1 [Example 119] | 2.47
Cc1ccc(OC2=NS(=O)(=O)CS2)c(C)c1 [Example 127] | 2.65
O=[N+]([O-])c1ccccc1OC1=NS(=O)(=O)CS1 [Example 128] | 1.84

Tested on: Plasmopara viticola
Experiment: Plasmopara test (grapevine)/protective
Type: in vivo
Conditions: 144 h, protective, evaluated 6 days after inoculation, read-out: Efficacy in %
Method: Plasmopara Test (Grapevine)/Protective Solvent: 47 parts by weight of acetone Emulsifier: 3 parts by weight of alkylaryl polyglycol ether To prepare a suitable active compound preparation, 1 part by weight of active compound is mixed with the stated amounts of solvent and emulsifier, and the concentrate is diluted with water to the desired concentration. To test for protective activity, young plants are sprayed with the active compound preparation at the application rate stated. After the spray coating has dried on, the plants are inoculated with an aqueous spore suspension of Plasmopara viticola and then remain for 1 day in an incubation cabinet at approx. 20° C. and a relative atmospheric humidity of 100%. […] The plants are then moistened and placed in an incubation cabinet for 1 day.

SMILES | pest or weed control at 250 g/ha [%]
CC(=O)c1ccc(OC2=NS(=O)(=O)CS2)cc1 [Example 21] | ≥ 90
CO/N=C(/c1ccccc1)c1cccc(OC2=NS(=O)(=O)CS2)c1 [Example 41] | ≥ 90
C=CCO/N=C(/c1ccccc1)c1cccc(OC2=NS(=O)(=O)CS2)c1 [Example 42] | ≥ 90
CC(C)(C)c1ccc(OC2=NS(=O)(=O)CS2)cc1 [Example 98] | ≥ 90
O=S1(=O)CSC(Oc2ccc(Cl)cc2Cc2ccccc2)=N1 [Example 99] | ≥ 90
O=S1(=O)CSC(Oc2c(Cl)cccc2Cl)=N1 [Example 102] | ≥ 90
O=S1(=O)CSC(Oc2cccc(Br)c2)=N1 [Example 119] | ≥ 90
O=[N+]([O-])c1ccccc1OC1=NS(=O)(=O)CS1 [Example 128] | ≥ 90
